The term IC50 denotes the concentration needed to halve the response being measured.

Like-named read-outs stand apart in the source and are kept apart here.

The source of these data is PMC7451656, “In vitro and in vivo growth inhibitory activities of cryptolepine hydrate against several Babesia species and Theileria equi” (PLoS Neglected Tropical Diseases, 2020).

The subject of one experiment is B. microti. Kind of experiment: Chemotherapeutic effect against B. microti in mice (parasitemia). Format: in vivo, Babesia microti. The conditions noted are these: for day p.i. on which parasitemia was undetectable by microscopy / peak parasitemia level: BALB/c mice; for peak parasitemia level: 5 days, day 10. How it is done:
Rodent B. microti (Munich strain) was recovered from -80°C stock and injected intraperitoneally (i.p.) in two 8-week-old female BALB/c mice purchased from CLEA Japan (Clea Japan, Tokyo, Japan). The mice were euthanized using an anesthesia system containing isoflurane after parasitemia reached approximately 30% and the blood was collected by cardiac puncture to conduct the in vivo studies.
(§1) The promising effect of CRY in vitro encouraged us to evaluate its in vivo effects against B. microti in mice. The assay was conducted in accordance with the previously described protocol. In two separate trials, 35 female 8-week-old BALB/c mice, housed under a pathogen-free environment with controlled humidity, temperature (22°C) and a 12 h light/ dark cycle were caged in seven groups, each group consisting of five mice. Six groups were i.p. injected with 0.5 ml of inoculum (1×10^7 B. microti iRBCs), while the seventh group was left uninfected and untreated to act as a negative control. When the average parasitemia in all infected mice reached approximately 1%, the 5-day drug treatment was initiated. The first and second groups were i.p. injected with 25 mg/kg body weight (BW) of DA and 5 mg/kg BW of CRY, respectively. The third group received 20 mg/kg BW of AQ orally, while the fourth and fifth groups were administered a combination of 2.5 mg/kg BW CRY + 12.5 mg/kg BW DA and 2.5 mg/kg BW CRY + 10 mg/kg AQ via a route similar to that of the single-drug treatment, respectively. The sixth group received 5% DMSO in physiological saline i.p. as a positive control. Parasitemia and hematology profiles (RBCs, hemoglobin (HGB), and HCT) were monitored every 2 and 4 days by microscopic examination and hematology analyzer (Celltac α MEK-6450, Nihon Kohden Corporation, Tokyo, Japan), respectively. On day 49, all mice were euthanized using an anesthesia system containing isoflurane and the blood was collected by cardiac puncture for PCR detection of the parasites.

Experiment [1] concerns B. microti small-subunit rRNA (ss-rRNA) gene. The experiment is described as follows: Nested PCR detection of B. microti DNA in blood of treated mice. Format: in vivo, Babesia microti. The procedure:
as §1
The nested PCR (nPCR) that targeted the B. microti small-subunit rRNA (ss-rRNA) gene was performed in accordance with the previously described protocol and the genomic DNA was extracted from blood samples collected from all mice groups on day 49 post-infection (p.i.) using a QIAamp DNA Blood Mini Kit (Qiagen, Tokyo, Japan). PCR cycling conditions were performed as previously described and the bands with an expected size of 154 bp were considered positive.

A further experiment deals with T. equi. The experiment is described as follows: Growth inhibitory fluorescence assay in vitro, T. equi. It counts as cell-based, Theileria equi. The note with it: for Selective index HFF: EC50 HFF / IC50 T. equi; for Selective index MDBK: EC50 MDBK / IC50 T. equi; for Selective index NIH/3T3: EC50 NIH/3T3 / IC50 T. equi; for IC50: Theileria equi, T. equi in vitro culture, fluorescence assay, 96 h. The procedure:
(§2) Texas strain of B. bovis and Argentina strain of B. bigemina were grown using bovine red blood cells (RBCs, collected from cattle farm of Obihiro University of Agriculture and Veterinary Medicine and stored at 4°C) in medium 199 (M199; Sigma-Aldrich, Tokyo, Japan) supplemented with 40% bovine serum, while RPMI 1640 medium (Sigma-Aldrich, Tokyo, Japan) was used for B. divergens (German strain) cultivation. The United States Department of Agriculture (USDA) strain of T. equi was grown in equine RBCs (collected from horse farm of Obihiro University of Agriculture and Veterinary Medicine and stored at 4°C) in M199 supplemented with 40% equine serum, and hypoxanthine (MP Biomedicals, Santa Ana, CA, USA) at a final concentration of 13.6 μg/ml was used as a vital supplement, while GIT medium was used for B. caballi (USDA strain) cultivation. Sixty μg/ml of streptomycin, 0.15 μg/ml of amphotericin B, and 60 U/ml of penicillin G (Sigma-Aldrich, Tokyo, Japan) were added to all media to prevent fungal and bacterial contamination. All parasite cultures were maintained for a long time in a microaerophilic stationary-phase culture system.
(§3) The inhibition assay was conducted according to the previously described protocol. Briefly, different concentrations of CRY, DA, CF, and AQ were added in triplicate in 96-well plates with 1% parasitemia and 2.5% HCT for B. bovis and B. bigemina and 5% HCT for B. divergens, B. caballi, and T. equi. The plates were incubated in a humidified incubator with 5% CO2, 5% O2, and 90% N2 for 96 h without changing the media. After 96 h, 100 μl of lysis buffer containing 2 × SG1 was directly added to each well and the plates were then wrapped in aluminum foil for protection from direct light and incubated for 6 h at room temperature. Afterward, the fluorescence was measured using a fluorescence spectrophotometer (Fluoroskan Ascent, Thermo Fisher Scientific, USA) at 485 nm excitation and 518 nm emission wavelengths. The relative fluorescence value was set to percentages after subtracting the mean values of the negative control. The experiment was repeated thrice.
(§4) The IC50 values of CRY, DA, CF, and AQ were determined using the nonlinear regression curve fit in GraphPad Prism (GraphPad Software Inc., San Diego, CA, USA). Combination index (CI) values for the drug combination were calculated using CompuSyn software, and the degree of synergism was determined as the weighted average of CI values using a formula [(1 x IC50) + (2 x IC75) + (3 x IC90) + (4 x IC95)]/10 [30]. The differences in parasitemia and hematology profiles in the B. microti–infected mice were analyzed using an independent Student’s t-test and one-way ANOVA test using GraphPad Prism version 5.0 for Windows (GraphPad Software Inc., San Diego, CA, USA). A P-value < 0.05 was considered statistically significant.

For another experiment, the system named is B. bovis. Kind of experiment: Growth inhibitory fluorescence assay in vitro, B. bovis. Format: cell-based, Babesia bovis. The conditions noted are these: for IC50: Babesia bovis, in Bos taurus, B. bovis in vitro culture, fluorescence assay, 96 h; for Selective index HFF: EC50 HFF / IC50 B. bovis; for Selective index MDBK: EC50 MDBK / IC50 B. bovis. How it is done:
as §2, §3, §4

The next experiment concerns B. bigemina. Kind of experiment: Growth inhibitory fluorescence assay in vitro, B. bigemina. It counts as cell-based, Babesia bigemina. The note with it: for Selective index HFF: EC50 HFF / IC50 B. bigemina; for Selective index MDBK: EC50 MDBK / IC50 B. bigemina; for Selective index NIH/3T3: EC50 NIH/3T3 / IC50 B. bigemina. How it is done:
as §2, §3, §4

The test system of a further experiment is B. divergens. Kind of experiment: Growth inhibitory fluorescence assay in vitro, B. divergens. It counts as cell-based, Babesia divergens. The note with it: for IC50: Babesia divergens; for Selective index HFF: EC50 HFF / IC50 B. divergens; for Selective index MDBK: EC50 MDBK / IC50 B. divergens; for Selective index NIH/3T3: EC50 NIH/3T3 / IC50 B. divergens. The procedure:
as §2, §3, §4

The mark [2] stands for this setting: B. divergens in vitro culture, fluorescence assay, 96 h, read-out: IC50.

Take `O=C1C(O)=C([C@H]2CC[C@H](c3ccc(Cl)cc3)CC2)C(=O)c2ccccc21` [AQ, atovaquone]: the “day p.i. on which parasitemia was undetectable by microscopy” value in the experiment with B. microti (20 mg/kg AQ oral) was determined as 18 days. Besides, the peak parasitemia level with B. microti (20 mg/kg AQ oral) came out at 9%. Also, the “parasite DNA in blood (nPCR)” value in experiment [1] (day 49, 20 mg/kg AQ) was “not detected”. The “Selective index HFF” value in the experiment on T. equi is listed as “˃ 1052.6”; in the experiment with B. bovis, “˃ 2564.1”; in the experiment with B. bigemina, “˃ 142.7”; with B. divergens, “˃ 2631.6”. For the same compound, the “Selective index MDBK” value in the experiment with T. equi is given as “˃ 1052.6”; in the experiment with B. bovis it was “˃ 2564.1”; in the experiment on B. bigemina, “˃ 142.7”; in the experiment with B. divergens, “˃ 2631.6”. For the same compound, the “Selective index NIH/3T3” value in the experiment on T. equi is recorded as “˃ 1052.6”; with B. bovis (EC50 NIH/3T3 / IC50 B. bovis) it was “˃ 2564.1”; in the experiment on B. bigemina, “˃ 142.7”; in the experiment with B. divergens, “˃ 2631.6”. Also, the IC50 in the experiment on T. equi came out at 95 ± 0.065 nM; in the experiment with B. bovis, 39 ± 0.002 nM; in the experiment on B. divergens (setting [2]), 38 ± 0.002 nM.

`Cn1c2c3ccccc3nc-2cc2ccccc21` [CRY, Cryptolepine hydrate]: in the experiment with B. microti (5 mg/kg CRY i.p.), the “day p.i. on which parasitemia was undetectable by microscopy” value was 28 days. In addition, in the experiment on B. microti (5 mg/kg CRY i.p., DMSO control 62.6% on day 8), the peak parasitemia level stood at 12.9%. The “growth of B. microti in mice” value in the experiment on B. microti (CRY 5 mg/kg) is “effectively inhibited”. The “parasite DNA in blood (nPCR)” value in experiment [1] (day 49, 5 mg/kg CRY) is “still detected”. Besides, the “Selective index HFF” value in the experiment on T. equi is reported as “˃ 136.9”; in the experiment on B. bovis it was “˃ 57.5”; with B. bigemina, “˃ 71.4”; in the experiment with B. divergens it was “˃ 126.9”. For the same compound, the “Selective index MDBK” value is reported as 118.73 with T. equi, 49.81 in the experiment on B. bovis, 61.91 in the experiment with B. bigemina and 109.71 with B. divergens. In addition, the figures for the “Selective index NIH/3T3” value with T. equi, with B. bigemina and with B. divergens were 130.54, 68.07 and 120.62, respectively. Besides, the “concentration at which in vitro growth was significantly inhibited” value with T. equi (T. equi, t-test P = 0.02) is 0.078 µM; in the experiment with B. bovis (B. bovis, t-test P = 0.005), 0.15 µM; with B. bigemina (B. bigemina, t-test P = 0.005) it was 0.15 µM; with B. divergens (B. divergens, t-test P = 0.003) it was 0.078 µM. Besides, the IC50 in the experiment with T. equi was 730 ± 0.025 nM; in the experiment on B. bovis it was 1740 ± 0.37 nM; in the experiment with B. bigemina (Babesia bigemina, B. bigemina in vitro culture, fluorescence assay, 96 h), 1400 ± 0.6 nM; in the experiment with B. divergens (setting [2]), 790 ± 0.32 nM; in the experiment with B. divergens (B. divergens, fluorescence assay after 96 h, three trials, read-out: IC50 (Fig 1)), 788 ± 320 nM.
